Tests used:
[1] = molecular target: α-glucosidase (yeast-derived reagent); assay: α-Glucosidase inhibitory activity (maltose substrate); type: biochemical; settings: for IC50: yeast-derived α-glucosidase, maltose substrate, 37° C., 60 minutes, read-out: 50% α-glucosidase inhibition concentration
Procedure: A yeast-derived reagent (Wako Pure Chemical) was used as an α-glucosidase. The reagent was dissolved in 10 mM phosphate buffer (pH 7.0) containing 0.2% bovine serum albumin.
In the experiment, 0.25 mL of 100 mM phosphate buffer, 0.25 mL of each sample solution at a different concentration, and 0.125 mL of a maltose aqueous solution serving as a substrate at a concentration of 10 mg/mL were mixed, followed by heating at 37° C. for 5 minutes. Then, 0.125 mL of an α-glucosidase solution was added thereto, followed by enzyme treatment at 37° C. for 60 minutes. As a reaction termination solution, 0.5 mL of a 0.2 M sodium carbonate solution was added to each resultant, followed by mixing. The glucose concentration of each reaction solution was measured using Glucose CII-Test Wako (Wako Pure Chemical). An inhibition rate (%) was calculated based on a proportion of the glucose concentration of a solution to which a sample had been added to the glucose concentration of a blank solution to which no sample had been added. Then, the concentration of each sample at which 50% enzyme activity was inhibited was calculated based on such inhibition rate derived from the concentration of the sample, followed by comparison.

[2] = result in words; cited from earlier work
[3] = Antioxidative activity measurement by DPPH radical scavenging; type: biochemical; settings: for DPPH radical 50% scavenging concentration: 30° C., 30 minutes, absorbance at 517 nm; for radical scavenging activity compared with α-tocopherol: DPPH reagent, result in words
Procedure: Antioxidative activity was evaluated with the use of a stable-radical diphenyl-p-picrylhydradil (DPPH)/ethanol solution. 400 μl of a sample/methanol solution was mixed with 1600 μl of 250 mM acetate buffer (pH=5.5) and 1200 μl of ethanol, at a different concentration, followed by preincubation at 30° C. for 5 minutes. Then, 800 μl of a 500 μM DPPH/ethanol solution was added to each resulting solution, followed by mixing. Each resultant was allowed to stand at 30° C. for 30 minutes, followed by measurement of absorbance at 517 nm. α-tocopherol was also subjected to the same operation. The obtained solution was thus designated as a positive control. A blank solution used was prepared by the same operation with the use of methanol instead of a sample solution. Based on absorbances measured, radical scavenging rates were calculated based on the following equation. Scavenging rate(%)=(1−[Absorbance of a sample]/[Absorbance of a blank])×100 [Equation 1]
The concentration of a sample solution was changed stepwise for the measurement of the aforementioned scavenging rate. As a result, the concentration of a sample solution at which the DPPH radical scavenging rate was 50% was obtained so as to be designated as the DPPH radical 50% scavenging concentration. The lower such value, the higher the radical scavenging capacity.

SMILES: O=c1c(OC2OC(CO)C(O)C(O)C2O)c(-c2ccc(O)c(O)c2)oc2cc(O)cc(O)c12 (centres unmarked) [Isoquercitrin, quercetin-3-glucoside, reference compound]
- IC50 [1]: 727 µM

SMILES: Cc1c(C)c2c(c(C)c1O)CC[C@@](C)(CCC[C@H](C)CCC[C@H](C)CCCC(C)C)O2 [α-tocopherol, reference compound]
- solubility in water [2]: insoluble in water
- DPPH radical 50% scavenging concentration [3]: 0.127 mg/mL

SMILES: O=C1c2c(O)cc(O)cc2O[C@H](c2ccc(O)c(O)c2)[C@H]1O [Taxifolin, taxifolin, reference compound]
- IC50 [1]: 892 µM

SMILES: OCC1OC2O[C@@H]3[C@@H](c4ccc(O)c(O)c4)Oc4cc(O)cc(O)c4[C@@H]3OC2C(O)C1O (stereo in doubt) [Product of the present invention]
- DPPH radical 50% scavenging concentration [3]: 0.080 mg/mL
- radical scavenging activity compared with α-tocopherol [3]: comparable to or exceeding that of α-tocopherol
- radical scavenging activity compared with α-tocopherol ([3]; listed as novel polyphenol glycoside of the present invention): almost comparable to that of α-tocopherol
- glucosidase inhibitory activity compared with isoquercitrin ([1]; result in words): several times stronger than that of isoquercitrin
- glucosidase inhibitory activity compared with taxifolin ([1]; result in words): several times stronger
- glucosidase inhibitory activity compared with taxifolin ([1]; result in words, listed as polyphenol glycoside of the present invention): several times stronger than that of taxifolin
- IC50 [1]: 164 µM

From patent publication US7935673B2, “Polyphenol glycoside isolated from acerola” (Nichirei Biosciences, Inc., priority 2004, dated 2011)
